Results: patent US20250011318A1 (ARCUS BIOSCIENCES, INC., priority 2023, published 2025)
pEC50, pIC50: −log10 of the molar value.

Tests used:
Jurkat cells = assay: IL-2 secretion assay in CD3/CD28-activated Jurkat cells (AlphaLISA); format: cell-based, human; conditions: Homo sapiens, CD3/CD28 T Cell Activator, 24 h, IL-2 AlphaLISA
Method: Certain compounds were also evaluated in an IL-2 secretion assay. On the day of the assay, a 16 point, 1:2 master serial dilution of each compound was prepared in Opti-MEM to span a final concentration range of 10 μM to 300 pM. Assays were setup in CORNING® tissue culture-treated 384-well microplates containing 60 nL of each dilution. Jurkat cells grown in RPMI-1640 supplemented with 10% FBS, 1% Glutamax, and 1% Pen/Strep were collected, resuspended in Opti-MEM. 50,000 cells/well and added to the compound plates. After a short spin (1200 rpm for 1 min), the plates were incubated at 37° C. for 1 hour. The cells were activated by adding 15 μL of IMUNOCULT™ Human CD3/CD28 T Cell Activator (STEMCELL Technologies) diluted in Opti-MEM. After 24 h of incubation at 37° C., aliquots of culture supernatants were transferred to OptiPlate-384 (PerkinElmer) microplates. The level of IL-2 secretion in the supernatants was then determined using the IL-2 (human) AlphaLISA Detection Kit (PerkinElmer) according to the manufacturer's recommendations. The AlphaLISA signal was measured using an EnVision plate reader (PerkinElmer). EC50 values were determined by fitting the data to a standard 4-parameter logistic equation. See Table 3 for data for select compounds (IL-2 Secretion (EC50)).

Cbl-b = biological target: T1, Cbl-b (Homo sapiens, UniProt Q13191); assay: Cbl-b probe displacement HTRF binding assay; conditions: 0.4 nM biotinylated Cbl-b, 150 nM BODIPY probe
T1 construct: biotin (biotinylated)
T1 sequence (Q13191 whole entry, species assumed): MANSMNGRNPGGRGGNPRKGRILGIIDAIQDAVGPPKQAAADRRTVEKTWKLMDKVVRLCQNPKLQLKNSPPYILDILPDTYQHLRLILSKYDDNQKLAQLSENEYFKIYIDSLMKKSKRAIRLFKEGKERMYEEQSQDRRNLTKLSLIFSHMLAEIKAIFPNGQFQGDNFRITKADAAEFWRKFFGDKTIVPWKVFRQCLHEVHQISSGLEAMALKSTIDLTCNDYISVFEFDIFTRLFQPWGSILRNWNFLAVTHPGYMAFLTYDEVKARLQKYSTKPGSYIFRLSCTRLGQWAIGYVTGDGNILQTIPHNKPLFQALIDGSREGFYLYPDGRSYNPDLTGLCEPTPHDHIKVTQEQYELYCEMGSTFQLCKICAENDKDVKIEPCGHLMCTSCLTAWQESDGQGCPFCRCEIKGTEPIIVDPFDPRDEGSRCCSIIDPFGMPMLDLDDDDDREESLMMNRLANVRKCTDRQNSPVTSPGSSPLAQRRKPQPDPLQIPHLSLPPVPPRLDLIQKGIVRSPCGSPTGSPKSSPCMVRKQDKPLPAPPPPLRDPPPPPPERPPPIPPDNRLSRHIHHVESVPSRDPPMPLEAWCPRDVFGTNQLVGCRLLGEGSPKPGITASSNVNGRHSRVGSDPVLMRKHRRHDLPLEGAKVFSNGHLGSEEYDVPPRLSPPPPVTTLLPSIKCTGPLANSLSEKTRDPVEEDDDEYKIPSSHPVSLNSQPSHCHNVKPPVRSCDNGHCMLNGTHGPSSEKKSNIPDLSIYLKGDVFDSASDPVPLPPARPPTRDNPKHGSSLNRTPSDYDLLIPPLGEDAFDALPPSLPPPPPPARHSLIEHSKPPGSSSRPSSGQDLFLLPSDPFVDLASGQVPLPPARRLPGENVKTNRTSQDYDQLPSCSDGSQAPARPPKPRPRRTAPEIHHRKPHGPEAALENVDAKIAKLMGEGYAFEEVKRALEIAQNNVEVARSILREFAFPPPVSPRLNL
Method: The affinity with which compounds of the present disclosure bind to Cbl-b was assessed using probe displacement homologous time resolved fluorescence (HTRF) assays. The assays used a BODIPY™ conjugated probe (Example 54 from WO 2020264398) and biotinylated Cbl-b. The assays were performed in assay buffer consisting of 20 mM Hepes, 150 mM NaCl, 0.01% Triton X-100, 0.5 mM TCEP, 0.01% BSA. On the day of the assay, a 20 point, 1:2 master serial dilution of each compound was prepared in DMSO to span a final concentration range of 10 μM to 0 nM. Two hundred nanoliters of diluted compound was added to each well of a 384-well plate. Fifteen microliters of biotinylated—Cbl-b resuspended in assay buffer were added to each well and the plate incubated for 60 minutes at room temperature prior to addition of 5 μL of BODIPY™ probe in assay buffer. Final assay conditions included 0.4 nM of Cbl-b and 150 nM of BODIPY™ probe. After a further 15 minutes of incubation at room temperature, 5 μl of Streptavidin-Terbium cryptate reagent at 5-fold final concentration was added to each well of the 384-well plate. Binding of a probe to Cbl-b results in an increase of HTRF signal. HTRF signal was measured by Envision plate reader, while competition of a compound of the present disclosure with probe results in a decrease of signal. Percentage maximum activity in each test well was calculated based on DMSO (maximum activity, 0% displacement) and no protein control wells (baseline activity, 100% displacement). Binding affinity was determined from a dose response curve fitted using a standard four parameter fit equation. See Table 3 for data for compounds (Cbl-b Binding (IC50)).

pEC50 (Jurkat cells) | pIC50 (Cbl-b) | Compound
6.00 to 7.00 | > 7.00 | COCCOCc1cc2ncn(-c3cc(-c4ccc(F)cc4-c4nncn4C)cc(C4CC4)n3)c(=O)c2[nH]1 [Example 38, 6-{6-cyclopropyl-4-[4-fluoro-2-(4-methyl-4H-1,2,4-triazol-3-yl)phenyl]-2-pyridyl}-2-[(2-methoxyethoxy)methyl]-1,6-dihydro-1,4,6-triaza-7-indenone]
> 7.00 | > 7.00 | Cn1cnnc1-c1cc(F)ccc1-c1cc(C2CC2)nc(-n2cnc3cc(C(F)C4CCCC4)[nH]c3c2=O)c1 (stereo not drawn) [Example 127, 6-[cyclopentyl(fluoro)methyl]-3-[6-cyclopropyl-4-[4-fluoro-2-(4-methyl-1,2,4-triazol-3-yl)phenyl]pyridin-2-yl]-5H-pyrrolo[3,2-d]pyrimidin-4-one]
5.30 to 6.00 | 6.00 to 7.00 | C[C@H]1CCCN(Cc2cc3c(C4CC4)cn(-c4cc(-c5ccc(F)cc5-c5cncn5C)cc(C5CC5)n4)c(=O)c3[nH]2)C1 [Example 24, 2-{[(S)-3-Methyl-1-piperidyl]methyl}-4-cyclopropyl-6-{6-cyclopropyl-4-[4-fluoro-2-(1-methyl-5-imidazolyl)phenyl]-2-pyridyl}-1,6-dihydro-1,6-diaza-7-indenone]
> 7.00 | > 7.00 | Cn1cc(C#N)nc1-c1cc(F)ccc1-c1cc(C2CC2)nc(-n2cc(C(F)(F)F)c3nc([C@H]4CCOC4)[nH]c3c2=O)c1 [Example 48, 2-[2-(2-{2-[(R)-Tetrahydro-3-furyl]-4-oxo-7-(trifluoromethyl)-3,5-dihydro-1,3,5-triaza-5-indenyl}-6-cyclopropyl-4-pyridyl)-5-fluorophenyl]-1-methyl-4-imidazolecarbonitrile]
> 7.00 | > 7.00 | C[C@H]1CCCN(Cc2cc3c(C4CC4)cn(-c4cc(-c5ccc(C(F)(F)F)cc5-c5nccn5C)cc(C5CC5)n4)c(=O)c3[nH]2)C1 [Example 83, 4-Cyclopropyl-6-[6-cyclopropyl-4-[2-(1-methylimidazol-2-yl)-4-(trifluoromethyl)phenyl]pyridin-2-yl]-2-[[(3S)-3-methylpiperidin-1-yl]methyl]-1H-pyrrolo[2,3-c]pyridin-7-one]
6.00 to 7.00 | > 7.00 | Cn1cnnc1-c1cc(F)ccc1-c1cc(C2CC2)nc(-n2cc(C#N)c3cc([C@@H](N)C(F)(F)F)[nH]c3c2=O)c1 [Example 97, 2-[(R)-1-amino-2,2,2-trifluoroethyl]-6-{6-cyclopropyl-4-[4-fluoro-2-(4-methyl-4H-1,2,4-triazol-3-yl)phenyl]-2-pyridyl}-7-oxo-1,6-dihydro-1,6-diaza-4-indenecarbonitrile]
5.30 to 6.00 | > 7.00 | Cc1cncnc1-c1cc(F)ccc1-c1cc(C2CC2)nc(N2Cc3ccc(CN4CCC[C@H](C)C4)cc3C2=O)c1 [Example 143, 2-[6-Cyclopropyl-4-[4-fluoro-2-(5-methylpyrimidin-4-yl)phenyl]pyridin-2-yl]-6-[[(3S)-3-methylpiperidin-1-yl]methyl]-3H-isoindol-1-one]
6.00 to 7.00 | > 7.00 | COCCNCc1cc2ncn(-c3cc(-c4ccc(F)cc4-n4nccc4C(F)(F)F)cc(C4CC4)n3)c(=O)c2[nH]1 [Example 104, 3-[6-cyclopropyl-4-[4-fluoro-2-[5-(trifluoromethyl)pyrazol-1-yl]phenyl]pyridin-2-yl]-6-[(2-methoxyethylamino)methyl]-5H-pyrrolo[3,2-d]pyrimidin-4-one]
6.00 to 7.00 | > 7.00 | CC1(NCc2cc3c(C4CC4)cn(-c4cc(-c5ccc(F)cc5-n5nccc5C(F)(F)F)cc(C5CC5)n4)c(=O)c3[nH]2)CCC1 [Example 103, 4-cyclopropyl-6-[6-cyclopropyl-4-[4-fluoro-2-[5-(trifluoromethyl)pyrazol-1-yl]phenyl]pyridin-2-yl]-2-[[(1-methylcyclobutyl)amino]methyl]-1H-pyrrolo[2,3-c]pyridin-7-one]
6.00 to 7.00 | > 7.00 | COC1CN(Cc2cc3ncn(-c4cc(-c5ccc(F)cc5-c5nc(C#N)cn5C)cc(C5CC5)n4)c(=O)c3[nH]2)C1 [Example 109, 2-[2-(6-cyclopropyl-2-{2-[(3-methoxy-1-azetidinyl)methyl]-7-oxo-1,6-dihydro-1,4,6-triaza-6-indenyl}-4-pyridyl)-5-fluorophenyl]-1-methyl-4-imidazolecarbonitrile]
6.00 to 7.00 | > 7.00 | C[C@H]1CCCN(Cc2cc3c(C4CC4)cn(-c4cc(-c5ccc(F)cc5-c5ncnn5C)cc(C5CC5)n4)c(=O)c3[nH]2)C1 [Example 119, 4-Cyclopropyl-6-[6-cyclopropyl-4-[4-fluoro-2-(2-methyl-1,2,4-triazol-3-yl)phenyl]pyridin-2-yl]-2-[[(3S)-3-methylpiperidin-1-yl]methyl]-1H-pyrrolo[2,3-c]pyridin-7-one]
5.30 to 6.00 | > 7.00 | Cc1c[nH]nc1-c1cc(C#N)ccc1-c1cc(C2CC2)nc(-n2cc(C3CC3)c3cc(CN4C[C@@H]5C[C@H]4CN5)[nH]c3c2=O)c1 [Example 18, 4-[2-cyclopropyl-6-[4-cyclopropyl-2-[[(1S,4S)-2,5-diazabicyclo[2.2.1]-heptan-2-yl]methyl]-7-oxo-1H-pyrrolo[2,3-c]pyridin-6-yl]pyridin-4-yl]-3-(4-methyl-1H-pyrazol-3-yl)benzonitrile]
6.00 to 7.00 | > 7.00 | Cn1cnnc1-c1cc(F)ccc1-c1cc(C2CC2)nc(-n2cnc3cc(C(F)F)[nH]c3c2=O)c1 [Example 128, 3-[6-cyclopropyl-4-[4-fluoro-2-(4-methyl-1,2,4-triazol-3-yl)phenyl]-pyridin-2-yl]-6-(difluoromethyl)-5H-pyrrolo[3,2-d]pyrimidin-4-one]
> 7.00 | > 7.00 | Cn1cc(C#N)nc1-c1cc(C#N)ccc1-c1cc(C2CC2)nc(-n2cnc3cc(CNC4(C)CCC4)[nH]c3c2=O)c1 [Example 115, 2-[5-cyano-2-[2-cyclopropyl-6-[6-[[(1-methylcyclobutyl)amino]methyl]-4-oxo-5H-pyrrolo[3,2-d]pyrimidin-3-yl]pyridin-4-yl]phenyl]-1-methylimidazole-4-carbonitrile]
5.30 to 6.00 | 6.00 to 7.00 | CNCCN(C)c1cc(-c2ccc(C#N)cc2-c2nncn2C)cc(-n2cc(C3CC3)c3cc(CN4CCC[C@H](C)C4)[nH]c3c2=O)n1 [Example 3, 4-(2-{N-methyl[2-(methylamino)ethyl]amino}-6-(2-{[(S)-3-methyl-1-piperidyl]methyl}-4-cyclopropyl-7-oxo-1,6-dihydro-1,6-diaza-6-indenyl)-4-pyridyl)-3-(4-methyl-4H-1,2,4-triazol-3-yl)benzonitrile]

Compound | pEC50 (Jurkat cells) | pIC50 (Cbl-b)
Cn1cnnc1-c1cc(F)ccc1-c1cc(C2CC2)nc(-n2cc(C(F)(F)F)c3c(C#N)n[nH]c3c2=O)c1 [Example 26, 6-{6-cyclopropyl-4-[4-fluoro-2-(4-methyl-4H-1,2,4-triazol-3-yl)phenyl]-2-pyridyl}-7-oxo-4-(trifluoromethyl)-1,6-dihydro-1,2,6-triaza-3-indenecarbonitrile] | 5.30 to 6.00 | > 7.00
Cc1c[nH]nc1-c1cc(C#N)ccc1-c1cc(C2CC2)nc(-n2cnc3cc(CN4CCC[C@H](C)C4)[nH]c3c2=O)c1 [Example 22, 4-[2-cyclopropyl-6-[6-[[(3S)-3-methylpiperidin-1-yl]methyl]-4-oxo-5H-pyrrolo[3,2-d]pyrimidin-3-yl]pyridin-4-yl]-3-(4-methyl-1H-pyrazol-3-yl)benzonitrile] | > 7.00 | > 7.00
CC(c1cc2c(S(C)(=O)=O)cn(-c3cc(-c4ccc(C#N)cc4-c4nccn4C)cc(C4CC4)n3)c(=O)c2[nH]1)N1CCC[C@H](C)C1 (mixture of isomers) [Example 101, 4-[2-(2-{1-[(S)-3-methyl-1-piperidyl]ethyl}-4-mesyl-7-oxo-1,6-dihydro-1,6-diaza-6-indenyl)-6-cyclopropyl-4-pyridyl]-3-(1-methyl-2-imidazolyl)benzonitrile] | > 7.00 | > 7.00
